Measurements published in patent US20200237759A1, “DOSAGE REGIME AND METHOD FOR TREATING PULMONARY ARTERIAL HYPERTENSION” (Altavant Sciences GmbH, priority 2019, published 2020).
Where “and” joins values, the source holds several entries; their conditions need not be identical. Equal values may be shown once.

Assay: Part 2 MAD plasma pharmacokinetics, BID oral KAR5585 for 14 days
[1] = 100 mg (Cohort 2) to 400 mg (Cohort 4) BID fed, 4-fold increase in dose
[2] = 100 mg/dose BID Fasted, Cohort 1, Day 1 AM
[3] = 100 mg/dose BID Fasted, Cohort 1, Day 14
[4] = 100 mg/dose BID Fed, Cohort 2, Day 1 AM
[5] = 100 mg/dose BID Fed, Cohort 2, Day 1 PM
[6] = 100 mg/dose BID Fed, Cohort 2, Day 7 AM
[7] = 100 mg/dose BID Fed, Cohort 2, Day 7 PM
[8] = 100 mg/dose BID Fed, Cohort 2, Day 14
[9] = 200 mg/dose BID Fed, Cohort 3, Day 1 AM
[10] = 400 mg/dose BID Fed, Cohort 4, Day 1 AM
[11] = 400 mg/dose BID Fed, Cohort 4, Day 1 PM
[12] = 400 mg/dose BID Fed, Cohort 4, Day 7 AM
[13] = 400 mg/dose BID Fed, Cohort 4, Day 7 PM
[14] = 400 mg/dose BID Fed, Cohort 4, Day 14 (last block, /D fits 400 mg)
[15] = Day 7 AM, blank dose cell under 400/Fed Cohort 4, /D fits 200 mg Fed Cohort 3
[16] = Day 7 AM, blank dose cell under 400/Fed Cohort 4, likely 200 mg Fed Cohort 3
[17] = Day 7 PM (3rd 7/PM block), blank dose cell under 400/Fed Cohort 4, /D fits 200 mg Fed Cohort 3
[18] = Day 7 PM, blank dose cell under 400/Fed Cohort 4, /D fits 200 mg Fed Cohort 3
[19] = Day 14 (first Day 14 block), blank dose cell under 400/Fed Cohort 4, /D fits 200 mg Fed Cohort 3

Description: Food effect was to be evaluated in Part 1, Period 2.
Part 2 (MAD): BID doses (separated by approximately 12 hours on Days 1 to 13) and a single AM dose on Day 14. One or more of the MAD Cohort could have been dosed once daily (QD).
Pharmacokinetic data were to be summarized descriptively.

**Q.** What does the source list for `CCOC(=O)[C@@H]1CC2(CCN(c3cc(O[C@H](c4ccc(Cl)cc4-c4ccccc4)C(F)(F)F)nc(N)n3)CC2)CN1` [KAR5585, (S)-ethyl 8-(2-amino-6-((R)-1-(5-chloro-[1,1′-biphenyl]-2-yl)-2,2,2-trifluoroethoxy)pyrimidin-4-yl)-2,8-diazaspiro[4.5]decane-3-carboxylate]?
**A.** increase in mean AUC0-12, Day 1 [1]: 5.1 fold; increase in mean AUC0-12, Day 14 [1]: 3.1 fold; increase in mean AUC0-24, Day 1 [1]: 3.6 fold; increase in mean AUC0-24, Day 14 [1]: 3.6 fold and 3.63 fold; increase in mean Cmax, Day 1 [1]: 4.4 fold; increase in mean Cmax, Day 14 [1]: ~3.0 fold; time to peak plasma concentrations (range), Day 1 (100 mg KAR5585 BID, Part 2 Cohort 1 (fasted state)): 0.75 to 2.0 h; VZ/F, Day 14 (100 mg KAR5585 BID, fed): 3520 L; mean VZ/F, Day 1 (100 mg KAR5585 BID, fed): 4100 L; AUC0-12 (Mean) [2]: 62.8 ng·h/mL; Cmax (Mean) [2]: 16.7 ng/mL; Vz/F (Mean) [2]: 4900 L; tmax (Median) [2]: 1.5 h; AUC0-24 (Mean) [3]: 99.8 ng·h/mL; C24 (Geo. Mean) [3]: BLQ; C24 (Mean) [3]: BLQ; Cmax (Mean) [3]: 21.3 ng/mL; Vz/F (Geo. Mean) [3]: 4230 L; Vz/F (Mean) [3]: 4420 L; t1/2 (Mean) [3]: 2.49 h; tmax (Median) [3]: 1.0 h; AUC0-12 (Geo. Mean) [4]: 51.2 ng·h/mL; AUC0-12 (Mean) [4]: 55.5 ng·h/mL; AUC0-∞ (Geo. Mean) [4]: 51.7 ng·h/mL; AUC0-∞ (Mean) [4]: 55.9 ng·h/mL; Cmax (Geo. Mean) [4]: 17.7 ng/mL; Cmax (Mean) [4]: 18.4 ng/mL; Vz/F (Geo. Mean) [4]: 3830 L; Vz/F (Mean) [4]: 4100 L; t1/2 (Geo. Mean) [4]: 1.37 h; tmax (Median) [4]: 0.75 h; AUC0-∞ (Geo. Mean) [5]: 152 ng·h/mL; Cmax (Geo. Mean) [5]: 39.8 ng/mL; Cmax (Mean) [5]: 44.1 ng/mL; Vz/F (Geo. Mean) [5]: 1730 L; Vz/F (Mean) [5]: 1820 L; t1/2 (Geo. Mean) [5]: 1.82 h; tmax (Median) [5]: 2.0 h; AUC0-12 (Geo. Mean) [6]: 127 ng·h/mL; AUC0-∞ (Geo. Mean) [6]: 137 ng·h/mL; Cmax (Geo. Mean) [6]: 29.8 ng/mL; Cmax (Mean) [6]: 31.3 ng/mL; Vz/F (Geo. Mean) [6]: 3210 L; Vz/F (Mean) [6]: 3360 L; t1/2 (Geo. Mean) [6]: 2.82 h; tmax (Median) [6]: 2.0 h; AUC0-12 (Geo. Mean) [7]: 142 ng·h/mL; AUC0-12 (Mean) [7]: 145 ng·h/mL; AUC0-24 (Geo. Mean) [7]: 278 ng·h/mL; AUC0-∞ (Geo. Mean) [7]: 168 ng·h/mL; Cmax (Mean) [7]: 28.4 ng/mL; Vz/F (Geo. Mean) [7]: 3550 L; Vz/F (Mean) [7]: 3910 L; t1/2 (Mean) [7]: 3.80 h; tmax (Median) [7]: 4.0 h; AUC0-12 (Geo. Mean) [8]: 114 ng·h/mL; AUC0-24 (Geo. Mean) [8]: 121 ng·h/mL; AUC0-24 (Mean) [8]: 122 ng·h/mL; AUC0-∞ (Geo. Mean) [8]: 121 ng·h/mL; C24 (Geo. Mean) [8]: BLQ; C24 (Mean) [8]: BLQ; Cmax (Geo. Mean) [8]: 28.5 ng/mL; Cmax (Mean) [8]: 30.0 ng/mL; Vz/F (Geo. Mean) [8]: 3330 L; Vz/F (Mean) [8]: 3520 L; t1/2 (Geo. Mean) [8]: 2.64 h; t1/2 (Mean) [8]: 2.73 h; tmax (Median) [8]: 1.8 h; VZ/F, Day 14 (200 mg KAR5585 BID, fed): 7010 L; mean VZ/F, Day 1 (200 mg KAR5585 BID, fed): 3220 L; Cmax (Mean) [9]: 87.8 ng/mL; Vz/F (Geo. Mean) [9]: 3130 L; Vz/F (Mean) [9]: 3220 L; t1/2 (Geo. Mean) [9]: 2.81 h; t1/2 (Mean) [9]: 2.91 h; tmax (Median) [9]: 1.5 h; VZ/F, Day 14 (400 mg KAR5585 BID, fed): 10300 L; mean VZ/F, Day 1 (400 mg KAR5585 BID, fed): 6800 L; tmax Day 7 evening dose (400 mg KAR5585 BID, fed): 6 h; AUC0-12 (Geo. Mean) [10]: 25.3 ng·h/mL; AUC0-12 (Mean) [10]: 2.81 ng·h/mL; AUC0-∞ (Geo. Mean) [10]: 272 ng·h/mL; AUC0-∞ (Mean) [10]: 305 ng·h/mL; Cmax (Mean) [10]: 81.8 ng/mL; Vz/F (Mean) [10]: 6800 L; t1/2 (Geo. Mean) [10]: 3.00 h; tmax (Median) [10]: 2.0 h; AUC0-∞ (Geo. Mean) [11]: 633 ng·h/mL; Cmax (Geo. Mean) [11]: 1100 ng/mL; Vz/F (Geo. Mean) [11]: 3820 L; Vz/F (Mean) [11]: 4030 L; t1/2 (Geo. Mean) [11]: 4.18 h; t1/2 (Mean) [11]: 4.33 h; tmax (Median) [11]: 3.0 h; AUC0-12 (Geo. Mean) [12]: 473 ng·h/mL; AUC0-∞ (Geo. Mean) [12]: 577 ng·h/mL; Cmax (Geo. Mean) [12]: 91.3 ng/mL; Vz/F (Geo. Mean) [12]: 5680 L; Vz/F (Mean) [12]: 6220 L; t1/2 (Mean) [12]: 4.90 h; tmax (Median) [12]: 2.0 h; AUC0-12 (Geo. Mean) [13]: 394 ng·h/mL; AUC0-∞ (Geo. Mean) [13]: 534 ng·h/mL; Cmax (Mean) [13]: 69.0 ng/mL; Vz/F (Geo. Mean) [13]: 6770 L; Vz/F (Mean) [13]: 6950 L; tmax (Median) [13]: 6.0 h; AUC0-12 (Geo. Mean) [14]: 359 ng·h/mL; AUC0-24 (Geo. Mean) [14]: 433 ng·h/mL; AUC0-24 (Mean) [14]: 444 ng·h/mL; AUC0-∞ (Geo. Mean) [14]: 465 ng·h/mL; Cmax (Geo. Mean) [14]: 85.3 ng/mL; Cmax (Mean) [14]: 89.0 ng/mL; Vz/F (Geo. Mean) [14]: 9780 L; Vz/F (Mean) [14]: 10300 L; t1/2 (Geo. Mean) [14]: 6.08 h; t1/2 (Mean) [14]: 6.45 h; tmax (Median) [14]: 1.5 h; study day by which steady-state plasma levels were achieved (BID oral KAR5585 for 14 days): ≤ 7 days; tmax (Median) (Day 7 AM): 3.0 h; t1/2 (Geo. Mean) [15]: 4.21 h; t1/2 (Mean) [15]: 4.30 h; AUC0-12 (Geo. Mean) [16]: 217 ng·h/mL; AUC0-12 (Mean) [16]: 230 ng·h/mL; AUC0-∞ (Geo. Mean) [16]: 256 ng·h/mL; AUC0-∞ (Mean) [16]: 273 ng·h/mL; Vz/F (Geo. Mean) [16]: 5610 L; Vz/F (Mean) [16]: 5960 L; tmax (Median) (Day 7 PM): 6.0 h; AUC0-12 (Geo. Mean) [17]: 201 ng·h/mL; AUC0-24 (Geo. Mean) [17]: 414 ng·h/mL; AUC0-∞ (Geo. Mean) [17]: 289 ng·h/mL; AUC0-∞ (Mean) [17]: 290 ng·h/mL; Vz/F (Geo. Mean) [17]: 7000 L; Vz/F (Mean) [17]: 8710 L; AUC0-12 (Geo. Mean) [18]: 333 ng·h/mL; AUC0-24 (Geo. Mean) [18]: 583 ng·h/mL; AUC0-∞ (Geo. Mean) [18]: 406 ng·h/mL; Cmax (Mean) [18]: 42.6 ng/mL; Vz/F (Geo. Mean) [18]: 3010 L; Vz/F (Mean) [18]: 3120 L; AUC0-24 (Geo. Mean) [19]: 199 ng·h/mL; AUC0-24 (Mean) [19]: 212 ng·h/mL; C24 (Geo. Mean) [19]: BLQ; C24 (Mean) [19]: BLQ; Cmax (Geo. Mean) [19]: 43.5 ng/mL; Cmax (Mean) [19]: 48.8 ng/mL; Vz/F (Geo. Mean) [19]: 6430 L; Vz/F (Mean) [19]: 7010 L
